# Reference: paper doi:[…]/2021.10.07.463234v2 (biorxiv, 2021)
# Structures can show the parent of a compound that is named as a salt.
# Biological target: SARS-CoV-2 Mac1 (Severe acute respiratory syndrome coronavirus 2, UniProt P0DTD1)
# Experiment: biochemical
# Details: 100 µM; inhibitor
row,Compound,%inhibition
1,COc1cc(Nc2ncc(F)c(Nc3ccc4c(n3)N(COP(=O)(O)O)C(=O)C(C)(C)O4)n2)cc(OC)c1OC [Fostamatinib (R788)],0%
2,Nc1ccn([C@@H]2O[C@H](CO)[C@@H](O)C2(F)F)c(=O)n1 [Gemcitabine HCl],0%
3,Nc1ccn([C@@H]2O[C@H](CO)[C@@H](O)C2(F)F)c(=O)n1 [Gemcitabine],32.55%
4,CN1[C@@H]2CCC[C@H]1C[C@@H](NC(=O)c1nn(C)c3ccccc13)C2 [Granisetron HCl],0%
5,CN1[C@@H]2CCC[C@H]1C[C@@H](NC(=O)c1nn(C)c3ccccc13)C2 [Granisetron],0.5264%
6,N=C(N)NCCN1CCCCCCC1 [Guanethidine Monosulfate],5.593%
7,N=C(N)NCCN1CCCCCCC1 [Guanethidine Sulfate],0%
8,NCCc1c[nH]cn1 [Histamine 2HCl],6.627%
9,NCCc1c[nH]cn1 [Histamine Phosphate],0%

# Same assay, conditions: read-out: %inhibition
row,Compound,inhibition at 100 µM
1,CCC(=O)O[C@@H](O[P@](=O)(CCCCc1ccccc1)CC(=O)N1C[C@H](C2CCCCC2)C[C@H]1C(=O)O)C(C)C [Fosinopril Sodium],0%
2,N[C@@H](CSCCCO)C(=O)O [Fudosteine],0%
3,C[C@]12CC[C@@H]3c4ccc(O)cc4C[C@@H](CCCCCCCCC[S+]([O-])CCCC(F)(F)C(F)(F)F)[C@H]3[C@@H]1CC[C@@H]2O (stereo partly drawn) [Fulvestrant],1.46%
4,CO[C@@H]1[C@H](OC(=O)/C=C/C=C/C=C/C=C/C(=O)O)CC[C@]2(CO2)[C@H]1[C@@]1(C)O[C@@H]1CC=C(C)C [Fumagillin],23.6%
5,O=C(O)/C=C/C(=O)O [Fumaric acid],1.89%
6,O=C1OC(CN2CCOCC2)CN1/N=C/c1ccc([N+](=O)[O-])o1 (stereo not drawn) [Furaltadone HCl],15.8%
7,O=C1OCCN1/N=C/c1ccc([N+](=O)[O-])o1 [Furazolidone],0%
8,NS(=O)(=O)c1cc(C(=O)O)c(NCc2ccco2)cc1Cl [Furosemide],0%
9,CC(=O)O[C@H]1C[C@@]2(C)[C@@H](C[C@@H](O)[C@H]3[C@@]4(C)CC[C@@H](O)[C@@H](C)[C@@H]4CC[C@@]32C)/C1=C(\CCC=C(C)C)C(=O)O [Fusidate Sodium],3.17%
10,NCC1(CC(=O)O)CCCCC1 [Gabapentin],0%
11,COc1ccc2c3c1O[C@H]1C[C@@H](O)C=C[C@@]31CCN(C)C2 [Galanthamine HBr],0%
12,C[C@]12CC[C@H](O)CC1=CC[C@@H]1[C@@H]2CC[C@]2(C)C(n3cnc4ccccc43)=CC[C@@H]12 [Galeterone],31.2%
13,CC[N+](CC)(CC)CCOc1cccc(OCC[N+](CC)(CC)CC)c1OCC[N+](CC)(CC)CC [Gallamine Triethiodide],3.8%
14,O=C(O)c1cc(O)c(O)c(O)c1 [Gallic acid],0%
15,Cc1cccc(-c2nn3c(c2-c2ccnc4ccc(C(N)=O)cc24)CCC3)n1 [Galunisertib (LY2157299)],0%
16,Nc1nc2c(ncn2COC(CO)CO)c(=O)[nH]1 [Ganciclovir],49.4%
17,Cc1cc(Nc2cc(CN3CCOCC3)c3nc(C)c(Cc4ccc(Cl)cc4F)n3n2)n[nH]1 [Gandotinib (LY2784544)],0%
18,CC(C)c1cc(-c2n[nH]c(=O)n2-c2ccc3c(ccn3C)c2)c(O)cc1O [Ganetespib (STA-9090)],1.18%
19,COc1c(N2CCNC(C)C2)c(F)cc2c(=O)c(C(=O)O)cn(C3CC3)c12 (stereo not drawn) [Gatifloxacin],1.88%
20,CC(C)=CCC/C(C)=C/CC/C(C)=C/CCC(=O)OC/C=C(\C)CCC=C(C)C [Gefarnate],5.96%
21,Cc1ccc(C)c(OCCCC(C)(C)C(=O)O)c1 [Gemfibrozil],45.1%
22,O=c1c(-c2ccc(O)cc2)coc2cc(O)cc(O)c12 [Genistein],1.56%
23,C#C[C@]1(O)C=C[C@H]2[C@@H]3CCC4=CC(=O)CC[C@@H]4[C@H]3CC[C@@]21CC [Gestodene],0%
24,Oc1cc(O)c(Cl)cn1 [Gimeracil],0%

row,Compound,inhibition at 100 µM
1,O=C(OCC(O)CO)c1ccccc1Nc1ccnc2cc(Cl)ccc12 (stereo not drawn) [Glafenine HCl],16.2%
2,CCC1=C(C)CN(C(=O)NCCc2ccc(S(=O)(=O)NC(=O)N[C@H]3CC[C@H](C)CC3)cc2)C1=O [Glimepiride],22.5%
3,Cc1cnc(C(=O)NCCc2ccc(S(=O)(=O)NC(=O)NC3CCCCC3)cc2)cn1 [Glipizide],19.9%
4,N[C@H]1C(O)O[C@H](CO)[C@@H](O)[C@@H]1O (stereo partly drawn) [Glucosamine hydrochloride],0%
5,N[C@@H](CCC(=O)N[C@@H](CS)C(=O)NCC(=O)O)C(=O)O [Glutathione],0%
6,COc1ccc(Cl)cc1C(=O)NCCc1ccc(S(=O)(=O)NC(=O)NC2CCCCC2)cc1 [Glyburide (Glibenclamide)],8.25%
7,NCC(=O)O [Glycine],0%
8,C[N+]1(C)CCC(OC(=O)C(O)(c2ccccc2)C2CCCC2)C1 (stereo not drawn) [Glycopyrrolate],0%
9,CC(C)C[C@H](NC(=O)CNC(=O)[C@H](Cc1ccc(O)cc1)NC(=O)[C@H](CO)NC(=O)[C@H](Cc1c[nH]c2ccccc12)NC(=O)[C@H](Cc1cnc[nH]1)NC(=O)[C@@H]1CCC(=O)N1)C(=O)N[C@@H](CCCNC(=N)N)C(=O)N1CCC[C@H]1C(=O)NCC(N)=O [Gonadorelin Acetate],0%
10,C=C[C@@H]1C[C@]1(NC(=O)[C@@H]1C[C@@H]2CN1C(=O)[C@H](C(C)(C)C)NC(=O)O[C@@H]1C[C@H]1CCCCCc1nc3ccc(OC)cc3nc1O2)C(=O)NS(=O)(=O)C1CC1 [Grazoprevir],0%
11,COC1=CC(=O)C[C@@H](C)[C@]12Oc1c(Cl)c(OC)cc(OC)c1C2=O [Griseofulvin],0%
12,COc1ccccc1O [Guaiacol],0%
13,COc1ccccc1OCC(O)CO (stereo not drawn) [Guaifenesin],33.3%
14,N=C(N)N/N=C/c1c(Cl)cccc1Cl [Guanabenz Acetate],0%
15,N=C(N)NC(=O)Cc1c(Cl)cccc1Cl [Guanfacine Hydrochloride],0%
16,N=C(N)N [Guanidine HCl],14%
17,CC1(C)O[C@@H]2C[C@H]3[C@@H]4CCC5=CC(=O)CC[C@]5(C)[C@@]4(F)[C@@H](O)C[C@]3(C)[C@]2(C(=O)CCl)O1 [Halcinonide],25.9%
18,CCC(=O)O[C@]1(C(=O)CCl)[C@@H](C)C[C@H]2[C@@H]3C[C@H](F)C4=CC(=O)C=C[C@]4(C)[C@@]3(F)[C@@H](O)C[C@@]21C [Halobetasol Propionate],24.3%
19,FC(F)(F)C(Cl)Br (stereo not drawn) [Halothane],0%
20,Oc1c(Cl)cc(Cl)c(Cl)c1Cc1c(O)c(Cl)cc(Cl)c1Cl [Hexachlorophene],0%
21,C[N+](C)(C)CCCCCC[N+](C)(C)C [Hexamethonium?Dibromide],0%
22,CC[C@H](c1ccc(O)cc1)[C@@H](CC)c1ccc(O)cc1 [Hexestrol],0%
23,CCCCCCc1ccc(O)cc1O [Hexylresorcinol],0%
24,C[N+]1(C)[C@@H]2CC[C@H]1C[C@@H](OC(=O)C(O)c1ccccc1)C2 (stereo partly drawn) [Homatropine Methylbromide],0%
